Reference: patent US20100210816A1, “NMDAR Biomarkers for Diagnosing and Treating Cerebral Ischemia” (priority 2006, published 2010)

What was measured:
NR2 antibodies [1] = assay: NR2 antibody monitoring in three patients (minor CVA, TIA, ischemic stroke) given oral Trental; assay type: in vivo, human
Description: The first case was a non-smoker who had previously undergone valve replacement surgery in 1987 and had received a coronary artery stent in 2002. The patient had been treated with coumudin since the first surgery. NR2 antibodies measured at base line were […] the 2 ng/ml cutoff. (FIG. 1). […] At the same time, the patient had complaints on chronic fatigue and numbness in the 4th and 5th digits of their left arm lasting quite a long period of time. […] Antibodies continued to decrease up to 6th mo. after treatment was initiated and remained below the cut off level more than 1 year after therapy.
The second patient was a apparently healthy person. Their blood assay for NR2 antibodies was performed initially on a voluntary basis as a healthy control. […] The patient used Plavix and Lipitor on daily basis as well.
The third patient was an non-smoker who had suffered ischemic stroke on May 28-29, 2002 after angioplasty. They had receiving coumadin, eardizem, atenolol, hytrin, lasix, and guaifinex when they entered the study.

[2] = acute ischemic stroke; non-significant reduction; 95% CI: 0.41, 1.02; cited from earlier work
[3] = TIA rate over 24 months of aspirin treatment follow up in individuals with DM/AS; assay type: in vivo, human; settings: 24 months follow up
Description: (§1) In this study, serial measurements of blood levels of NR2 antibodies in an out-patient setting in individuals with diabetes mellitus (DM) and atherosclerosis (AS) who are at high risk for subsequent CVA were evaluated to establish whether this biomarker can be used to monitor the efficacy of aspirin treatment. Every person who participated in the study underwent neurological examination and computed tomography (CT) of the brain. The age of the 33 persons (17 male/16 female) ranged from 47-64 yrs (mean 55.7 yrs). Patients with documented 5-10 year history of DM/AS and normal neurological examination without a previous history of neurological event such as transient ischemic attack (TIA), or prolonged reversible ischemic neurological deficit or stroke were observed. Based on laboratory and clinical testing, all participants were at borderline glucose intolerance, with blood glucose levels of 119 to 132 mg/dL, and had complaints on fatigue, low concentration of attention, and numbness in digits of left or right hand.
Out of 22 individuals, 10 (6 male/4 female) were randomly assigned to a placebo group and the rest used daily over-counter aspirin in a dose of 325 mg which formed group 1 (Table 3). […]
NR2 antibodies were detected at a base level for each group before treatment was initiated (0 mo.) and then each following 6 months for two years. […]

NR2 antibodies [4] = assay: Serial blood NR2 antibody levels over 24 months of aspirin treatment follow up in individuals with DM/AS at high risk for CVA; assay type: in vivo, human; settings: for NR2 antibodies, 6 mo.: 6 months; for NR2 antibodies, 0 mo.: base level before treatment
Description: as §1
Out of 22 individuals, 10 (6 male/4 female) were randomly assigned to a placebo group and the rest used daily over-counter aspirin in a dose of 325 mg which formed group 1 (Table 3). None of people of group 1 developed the resistance to aspirin.
NR2 antibodies were detected at a base level for each group before treatment was initiated (0 mo.) and then each following 6 months for two years. […] A TIA event was documented in 1 patient from the placebo group. […] By the end of the study at 24 mo., two out of 9 persons suffered a TIA which developed into an acute ischemic stroke in one patient.

[5] = patients with TIA or minor CVA; cited from earlier work
[6] = large meta-analysis, BMJ 1994; cited from earlier work
[7] = Group 1 (not aspirin-resistant, N=12), aspirin 325 mg daily
[8] = Group 2 (resistant to aspirin, N=9), aspirin 325 mg/day

SMILES | Effect on level of NR2 antibodies (NR2 antibodies [1]; person after TIA, oral 200 mg twice a day for 30 days, FIG. 2) | Effect on level of NR2 antibodies (NR2 antibodies [1]; person after ischemic stroke, oral 200 mg x 3 times a day for 60 days, FIG. 3) | Effect on level of NR2 antibodies (NR2 antibodies [1]; person, minor CVA, oral 200 mg twice a day for 30 days, FIG. 1) | Odds ratio of early death [2] | TIA rate [3, 7] | TIA rate [3, 8] | NR2 antibodies, 6 mo. (NR2 antibodies [4]; [7]) [ng/mL] | NR2 antibodies, 0 mo. (NR2 antibodies [4]; [7]) [ng/mL] | Change of NR2 antibody levels (NR2 antibodies [4]; Group 1, aspirin 325 mg daily, below cut off of 2 ng/ml, no CVA consequences) | NR2 antibodies, 6 mo. (NR2 antibodies [4]; [8]) [ng/mL] | NR2 antibodies, 0 mo. (NR2 antibodies [4]; [8]) [ng/mL] | Change of NR2 antibody levels (NR2 antibodies [4]; Group 2, patients resistant to aspirin, any time during the study) | Reduction of the risk of TIA [5] [%] | Reduction of incidence of stroke, myocardial infarction, or vascular death [6] [%]
CC(=O)CCCCn1c(=O)c2c(ncn2C)n(C)c1=O [Trental, pentoxifylline] | reduced the level of NR2 antibodies to the control level of healthy individuals | reduced the level of NR2 antibodies to the cut off | reduced the level of NR2 antibodies by the end of treatment | 0.64 | – | – | – | – | – | – | – | – | – | –
CC(=O)Oc1ccccc1C(=O)O [aspirin] | – | – | – | – | 0 | 2/9 | 2.51 ± 0.28 | 3.05 ± 0.21 | significantly reduced | 3.22 ± 0.30 | 2.87 ± 0.11 | no improvement in NR2 antibodies levels | 20 | 25
